Laboratory results reported in US8461378B2, “Purification of fluoroalkanesulfonate salts” (E.I. du Pont de Nemours and Company, priority 2010, dated 2013).

Experiment: Solubility of TFESK in water and in aqueous K2SO3 solution
Format: physicochemical
Description: Therefore, TFESK was selectively crystallized from sulfite solutions.

## O=S(=O)([O-])C(F)(F)C(F)F.[K+] [TFESK, Potassium 1,1,2,2-tetrafluoroethanesulfonate]
2M K2SO3 solution
  solubility in 2M K2SO3 solution: 1-2 % by weight
Water at 0° C.
  solubility in water: 25 % by weight
